Assay results reported in patent publication US20080317723A1, “LYMPHATIC ENDOTHELIAL CELLS MATERIALS AND METHODS” (VEGENICS LIMITED, priority 2001, published 2008).
Entries after “also recorded” stand apart in the source; their conditions may differ.

B1: mVEGF-D: mature form of mouse VEGF-D, data from Baldwin et al. 2001 (protein, UniProt P97946 94-210, looked up)
Vascular endothelial growth …: FAATFYDTETLKVIDEEWQRTQCSPRETCVEVASELGKTTNTFFKPPCVNVFRCGGCCNEEGVMCMNTSTSYISKQLFEISVPLTSVPELVPVKIANHTGCKCLPTGPRHPYSIIRR

How the values were obtained:
p42/p44 MAPK = p42/p44 MAPK Thr202/Tyr204 phosphorylation in HMVE cells, Western blot; format: cell-based, human; details: minimum growth factor concentrations giving maximal activation
Protocol: (§1) Western blot analysis. Endothelial cells were cultured on 35 mm dishes to near confluence, starved for 24 h in serum free medium and stimulated as indicated. Wortmannin ([…]), LY294002 ([…]), PD98059 (10-25 μM) or GF109203X (2.5-5 μM) were added 1-3 h before stimulation, where indicated. DMSO, into which the inhibitors were dissolved, was used as a control. After the stimulation, the cells were lysed in lysis buffer (50 mM HEPES, pH 7.5, 150 mM NaCl, 10 mM EDTA, 100 mM NaF, 1% TritonX-100 supplemented with 2 mM Na3VO4, 0.5 mM PMSF, 100 U/ml approtinin and 10 μg/ml leupeptin). Clarified lysates were separated by SDS-PAGE, transferred to nitrocellulose and immunoblotted using the phosphospecific antibodies for Akt-Ser473, Akt-Thr308, p42/44 MAPK-Thr202/Tyr204 or CREB-Ser133. The bound antibodies were detected using horseradish peroxidase conjugated secondary antibodies and enhanced chemiluminescence detection system. The blots were stripped and reprobed with antibodies against Akt, MAPK or CREB for quantification by reading the optical densities of the signals with Multi-Analyst 2.0.1 program (Bio-Rad).
(§2) The p42/p44 MAPK activation was detected by Western blotting using phospho-Thr202/Tyr204-MAPK specific antibodies and CREB phosphorylation using phospho-Ser133 specific antibodies. The growth factor concentrations used were: VEGF 10 ng/ml, VEGF-C 100 ng/ml and VEGF-C156S 500 ng/ml. […] Effects of inhibition of protein kinase C by GF109203X, MEK1 by PD98059 and PI-3 kinase by LY294002 on p42/p44 MAPK Thr202/Tyr204 phosphorylation, CREB Ser133 phosphorylation and Akt Ser473 phosphorylation in HMVE cells. The growth factor concentrations used were: VEGF 1 ng/ml, VEGF-C 10 ng/ml and VEGF-C156S 500 ng/ml

CREB = CREB Ser133 phosphorylation in HMVE cells, Western blot; format: cell-based, human; details: HMVE cells
Protocol: as §1, §2

mVEGFR-3 = mVEGFR-3 (Mus musculus, UniProt P35917); details: reference: Baldwin et al. 2001; cited from earlier work
mVEGFR-2 = mVEGFR-2 (Mus musculus, UniProt P35918); details: mVEGFR-2, monovalent; reference: Baldwin et al. 2001; cited from earlier work
Sequence of mVEGFR-2 (P35918 20-1345): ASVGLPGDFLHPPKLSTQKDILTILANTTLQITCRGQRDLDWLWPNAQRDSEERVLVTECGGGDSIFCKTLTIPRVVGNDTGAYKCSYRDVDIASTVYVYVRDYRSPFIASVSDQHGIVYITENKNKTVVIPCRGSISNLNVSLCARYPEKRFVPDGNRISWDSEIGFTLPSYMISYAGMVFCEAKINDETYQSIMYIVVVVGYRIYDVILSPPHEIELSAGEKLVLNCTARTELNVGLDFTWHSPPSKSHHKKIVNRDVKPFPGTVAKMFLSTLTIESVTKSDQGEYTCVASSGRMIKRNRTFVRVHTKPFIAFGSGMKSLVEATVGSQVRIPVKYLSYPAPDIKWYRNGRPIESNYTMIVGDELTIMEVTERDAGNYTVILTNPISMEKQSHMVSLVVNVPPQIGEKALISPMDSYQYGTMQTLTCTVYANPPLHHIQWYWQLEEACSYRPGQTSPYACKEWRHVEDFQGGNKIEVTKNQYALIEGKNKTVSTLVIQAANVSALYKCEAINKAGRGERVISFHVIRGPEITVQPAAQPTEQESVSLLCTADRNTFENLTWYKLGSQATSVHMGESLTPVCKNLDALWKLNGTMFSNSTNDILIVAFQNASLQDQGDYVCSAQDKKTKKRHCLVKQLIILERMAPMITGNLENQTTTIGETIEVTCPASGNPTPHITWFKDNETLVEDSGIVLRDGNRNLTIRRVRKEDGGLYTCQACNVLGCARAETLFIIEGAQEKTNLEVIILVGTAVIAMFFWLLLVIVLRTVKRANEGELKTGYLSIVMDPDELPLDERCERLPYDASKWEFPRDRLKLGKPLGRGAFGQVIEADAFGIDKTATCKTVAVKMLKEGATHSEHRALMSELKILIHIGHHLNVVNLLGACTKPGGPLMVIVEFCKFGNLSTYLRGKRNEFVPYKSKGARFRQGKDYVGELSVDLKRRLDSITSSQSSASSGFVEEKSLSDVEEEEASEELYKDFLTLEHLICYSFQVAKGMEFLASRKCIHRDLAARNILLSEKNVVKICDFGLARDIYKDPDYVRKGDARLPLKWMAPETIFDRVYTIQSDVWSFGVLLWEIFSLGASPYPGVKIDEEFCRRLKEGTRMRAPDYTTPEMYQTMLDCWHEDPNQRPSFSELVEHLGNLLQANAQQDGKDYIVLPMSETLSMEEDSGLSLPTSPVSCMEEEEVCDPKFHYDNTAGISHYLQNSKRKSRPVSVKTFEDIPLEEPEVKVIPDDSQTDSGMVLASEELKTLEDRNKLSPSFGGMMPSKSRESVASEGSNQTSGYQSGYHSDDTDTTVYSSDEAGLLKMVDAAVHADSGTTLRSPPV

Sequence of mVEGFR-3 (P35917 25-1363): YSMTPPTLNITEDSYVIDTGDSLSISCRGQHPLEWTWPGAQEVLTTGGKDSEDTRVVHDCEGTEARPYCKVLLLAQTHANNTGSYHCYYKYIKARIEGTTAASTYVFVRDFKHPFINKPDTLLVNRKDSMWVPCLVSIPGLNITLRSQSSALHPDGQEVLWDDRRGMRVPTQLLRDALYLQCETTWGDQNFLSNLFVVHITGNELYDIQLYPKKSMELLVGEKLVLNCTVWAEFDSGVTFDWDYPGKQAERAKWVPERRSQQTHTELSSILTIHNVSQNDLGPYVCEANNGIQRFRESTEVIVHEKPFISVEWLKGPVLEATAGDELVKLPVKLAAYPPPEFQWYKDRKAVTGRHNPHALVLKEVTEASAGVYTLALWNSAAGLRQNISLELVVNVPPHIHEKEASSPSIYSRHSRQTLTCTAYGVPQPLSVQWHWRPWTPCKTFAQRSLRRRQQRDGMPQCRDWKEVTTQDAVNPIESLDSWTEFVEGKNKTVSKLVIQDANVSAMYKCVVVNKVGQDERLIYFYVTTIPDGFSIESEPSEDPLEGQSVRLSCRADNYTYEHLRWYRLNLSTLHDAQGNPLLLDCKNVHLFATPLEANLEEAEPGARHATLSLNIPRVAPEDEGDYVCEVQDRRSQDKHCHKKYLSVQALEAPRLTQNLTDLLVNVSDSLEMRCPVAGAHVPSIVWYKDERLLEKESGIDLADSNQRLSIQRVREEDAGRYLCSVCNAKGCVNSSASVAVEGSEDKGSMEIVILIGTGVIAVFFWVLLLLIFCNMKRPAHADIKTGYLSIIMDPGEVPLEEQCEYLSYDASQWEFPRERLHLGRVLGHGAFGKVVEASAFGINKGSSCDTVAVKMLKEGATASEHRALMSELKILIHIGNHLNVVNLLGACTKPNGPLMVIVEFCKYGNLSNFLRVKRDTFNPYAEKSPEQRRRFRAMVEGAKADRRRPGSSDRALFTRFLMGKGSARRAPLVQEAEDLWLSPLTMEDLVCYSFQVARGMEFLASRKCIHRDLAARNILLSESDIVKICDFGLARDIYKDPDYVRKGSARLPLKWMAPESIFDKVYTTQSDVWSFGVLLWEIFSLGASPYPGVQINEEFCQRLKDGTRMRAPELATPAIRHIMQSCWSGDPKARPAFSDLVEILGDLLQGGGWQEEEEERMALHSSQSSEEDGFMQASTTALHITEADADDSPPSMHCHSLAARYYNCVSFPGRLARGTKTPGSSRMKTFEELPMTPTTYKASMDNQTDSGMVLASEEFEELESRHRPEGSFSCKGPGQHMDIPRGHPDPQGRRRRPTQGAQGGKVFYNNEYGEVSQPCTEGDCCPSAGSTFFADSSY

Molecule | effect on p42/44 MAPK phosphorylation induced by VEGF, VEGF-C or VEGF-C156S (p42/p44 MAPK) | effect of inhibitor on VEGF induced CREB phosphorylation (CREB) | effect of inhibitor on VEGF-C induced CREB phosphorylation (CREB) | Ka (mVEGFR-3) [M⁻¹ s⁻¹] | KD (mVEGFR-2) | Ka (mVEGFR-2) | Kd (mVEGFR-2)
CN(C)CCCn1cc(C2=C(c3c[nH]c4ccccc34)C(=O)NC2=O)c2ccccc21 [GF109203X, Bisindolylmaleimide I] | completely blocked | completely blocked | completely blocked |  |  |  | 
COc1cccc(-c2cc(=O)c3ccccc3o2)c1N [PD98059] |  | but not VEGF induced CREB phosphorylation; also recorded: did not inhibit VEGF induced CREB phosphorylation | inhibited VEGFC; also recorded: decreased phosphorylation of CREB upon VEGFC stimulation |  |  |  | 
N#CC(=C(/N)Sc1ccccc1N)/C(C#N)=C(\N)Sc1ccccc1N [U0126] |  | but not VEGF induced CREB phosphorylation | inhibited VEGFC |  |  |  | 
B1 |  |  |  | 8000 | no binding | no binding | no binding
